Test results from patent US7834173B2, “Esters of hyaluronic acid with rhein, process for their preparation and compositions comprising the same” (Laboratoire Medidom S.A., priority 2004, dated 2010).

Test: Viscosity / syringeability of 1% w/v solutions (VISCOMATE VM-10A)
Type: physicochemical
Details: 1% w/v in phosphate-buffered saline solution pH 7.4, 20±0.2° C., no stirring
Protocol: The syringeability of the HA-Re compound of the invention was analysed in comparison to that of hyaluronic acid both with a high and a low molecular weight.
In particular, the following three samples were prepared: • a) a 1% w/v solution of high molecular weight hyaluronic acid (average molecular weight approximately 1'200'000) in phosphate-buffered saline solution, pH 7.4 • b) a 1% w/v solution of low molecular weight hyaluronic acid (average molecular weight approximately 600'000) in phosphate-buffered saline solution, pH 7.4 • c) a 1% w/v solution of the HA-Re compound of the invention in phosphate-buffered saline solution, pH 7.4.
The viscosity of the samples was then measured using a VISCOMATE MODEL VM-10A (glass vial: 3 ml; in the absence of stirring conditions; temperature 20±0.2° C.), with the following values being obtained: • a) η=78.4 mPa·s • b) η=64.8 mPa·s • c) η=47.9 mPa·s

In the case of low molecular weight hyaluronic acid, the “viscosity η” value is reported as 64.8 mPa·s.
